These results are taken from ChEMBL document CHEMBL1201862, “PubChem BioAssay data set” (2004).

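The compound was tested at five concentrations on cells cultured in 96-well plates, with a 48-hour exposure period. Here, GI50 denotes the concentration required for 50% inhibition of growth.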 Calls of active or inactive are those of the source. No stated cut-off is given here; in the data, active = GI50 up to about 1.1 µM and inactive = higher.

Common to all, as to assay: growth of human tumour cells (NCI), 48 h
In test [1] the test system is KM12.
The test system of test [2] is NCI-H522.
Test [3] relates to U-251.
Test [4] concerns HL-60.
Test [5] deals with PC-3.
Test [6] concerns NCI/ADR-RES.
The subject of test [7] is SF-295.
The test system of test [8] is HT-29.
For test [9], the system named is COLO 205.
In test [10] the test system is SNB-19.
In test [11] the test system is 786-0.
For test [12], the system named is TK-10.
Test [13] has as its system RPMI-8226.
The subject of test [14] is OVCAR-5.
For test [15], the system named is Hs-578T.
Test [16] concerns NCI-H460.
Test [17] has as its system SN12C.
Test [18] relates to SW-620.
The test system of test [19] is NCI-H23.
Test [20] concerns RXF 393.

`COc1cc(Nc2ccc3c(c2)CCC3)nc(OC)n1`: the GI50 in [1] is 27.9 µM (inactive); in test [2] it was 21.4 µM (inactive); in [3], > 100 µM (inactive); in test [4] it was 29.6 µM (inactive); in [5] it was 27.1 µM (inactive); in [6], 23.1 µM (inactive). Besides, the GI50 in test [7] was 29.6 µM (inactive); in [8], 19.9 µM (inactive); in test [9] it was 37.3 µM (inactive); in test [10], 43.6 µM (inactive); in test [11] it was 37.2 µM (inactive); in test [12] it was 28.2 µM (inactive). Moreover, the GI50 was 14.7 µM (inactive) in test [13]; 78 µM (inactive) in [14]; 6.58 µM (inactive) in test [15]; 30.8 µM (inactive) in test [16]; 30.2 µM (inactive) in test [17]; > 100 µM (inactive) in test [18]. In test [19], the GI50 is 36 µM (inactive).
On to `CC(C)=CCC[C@@H](C)C1=C(O)C(=O)C(C)=C(Nc2ccccc2I)C1=O`, for which the GI50 in test [20] was 13.2 µM (inactive); in [1] it was 7.55 µM (inactive); in [3] it was 7.01 µM (inactive); in test [4], 2.19 µM (inactive); in test [5], 5.61 µM (inactive); in test [6], 2.28 µM (inactive). Besides, the GI50 in test [7] is 4.22 µM (inactive); in test [8], 14 µM (inactive); in test [9] it was 15.5 µM (inactive); in [10] it was 25.4 µM (inactive); in test [11], 13.5 µM (inactive); in test [12] it was 22.1 µM (inactive). Further, the GI50 in [13] was 9.1 µM (inactive); in test [14], 38.2 µM (inactive); in test [15], 9.12 µM (inactive); in [16], 10.1 µM (inactive); in test [17], 16.7 µM (inactive); in [18] it was 21.9 µM (inactive). Besides, the GI50 in [19] was 6.05 µM (inactive).
In the case of `Cc1ccc2[nH]c(=O)c(-c3cnc(O)nn3)c(O)c2c1`, the GI50 was 17.2 µM (inactive) in [20]; > 100 µM (inactive) in [1]; > 100 µM (inactive) in [3]; > 100 µM (inactive) in [4]; 15.6 µM (inactive) in test [5]; > 100 µM (inactive) in [6]. In addition, the GI50 in [7] is 60.7 µM (inactive); in test [8] it was > 100 µM (inactive); in [9], > 100 µM (inactive); in test [11] it was > 100 µM (inactive); in test [12] it was > 100 µM (inactive); in test [13], 6.24 µM (inactive). Also, the GI50 in test [14] was > 100 µM (inactive); in test [15], > 100 µM (inactive); in test [16], > 100 µM (inactive); in test [17], > 100 µM (inactive); in [18], > 100 µM (inactive); in test [19] it was 86.7 µM (inactive).
As to `COC12CCCN1c1ccn(Cc3ccccc3)c(=O)c1C2=O` (stereo not given), the GI50 in test [20] is > 100 µM (inactive); in test [1], > 100 µM (inactive); in test [2], > 100 µM (inactive); in test [3] it was > 100 µM (inactive); in test [4], 66.1 µM (inactive); in [5], > 100 µM (inactive). Besides, the GI50 in [6], in test [7], in [8], in [9], in test [10] and in test [11] was > 100 µM (inactive) in each case. Also, the GI50 in test [12], in test [14], in test [15], in test [16], in test [17] and in test [18] was > 100 µM (inactive) throughout. In addition, the GI50 in test [19] was > 100 µM (inactive).
Turning to `CC(=O)OC1CC[C@]2(C)C3CC[C@@]4(C)C(CCC4[C@H](C)CCCC(C)C)[C@@H]3CCC2(Br)C1` (stereo not given in full), the GI50 in test [20] is 12.1 µM (inactive); in test [1], 21.4 µM (inactive); in test [2], 10.3 µM (inactive); in [3], 17.9 µM (inactive); in test [4] it was 9.59 µM (inactive); in test [5] it was 10.9 µM (inactive). Also, the GI50 in test [6] was 41 µM (inactive); in [7], 34.8 µM (inactive); in test [8], 17.5 µM (inactive); in test [9], 9.62 µM (inactive); in test [10], 27.4 µM (inactive); in test [11], 8.49 µM (inactive). Besides, the GI50 in test [12] was 12.8 µM (inactive); in test [14], 24.2 µM (inactive); in [15], 10.1 µM (inactive); in [16], 39.7 µM (inactive); in [17] it was 22.5 µM (inactive); in test [18], 9.42 µM (inactive). Also, the GI50 in [19] is 13 µM (inactive).
Consider `S=C(NCc1ccccc1)N/N=C/c1ccccn1`, for which the GI50 in [1] was 4.91 µM (inactive); in test [2] it was 0.982 µM (active); in test [3], 2.97 µM (inactive); in test [4], 0.0302 µM (active); in test [5], 0.762 µM (active); in [6], 1.88 µM (inactive). Besides, the GI50 in test [7] was 1.86 µM (inactive); in test [8] it was 0.743 µM (active); in test [9] it was 0.104 µM (active); in [10], 7.93 µM (inactive); in test [11], 1.59 µM (inactive); in [12], 12.9 µM (inactive). Also, the GI50 in test [13] is 0.118 µM (active); in test [14], > 21.8 µM (inactive); in test [15], 14.8 µM (inactive); in test [16], 2.04 µM (inactive); in test [17], 4.31 µM (inactive); in test [18], 1.16 µM (inactive). Further, in [19], the GI50 was 3.56 µM (inactive).
For `C[C@]12CC[C@H]3[C@@H](CC=C4C[C@@H](N5CCCC5)CC[C@@]43C)[C@@H]1C/C(=C\c1ccc([N+](=O)[O-])cc1)[C@@H]2O`, the GI50 is 19.9 µM (inactive) in [20]; 16.2 µM (inactive) in test [1]; 17.1 µM (inactive) in test [2]; 12.7 µM (inactive) in test [3]; 24.3 µM (inactive) in [5]; 17.7 µM (inactive) in test [6]. For the same compound, the GI50 in test [7] was 24.9 µM (inactive); in test [8], 13.2 µM (inactive); in [9], 16.6 µM (inactive); in test [10], 24.7 µM (inactive); in test [11], 5.77 µM (inactive); in test [12] it was 17.5 µM (inactive). In addition, the GI50 in test [13] was 16.1 µM (inactive); in [15], 18.5 µM (inactive); in test [16], 28.1 µM (inactive); in [17], 14.4 µM (inactive); in test [18], 17.9 µM (inactive); in test [19], 19.7 µM (inactive).
`COc1ccc(C(=O)C(CC2C(=O)CC(C)(C)C(C(=O)C(=O)Nc3c(C)cccc3C)C2=O)c2ccc(OC)cc2)cc1` (stereo not given): the GI50 in [20] is > 100 µM (inactive); in [1] it was > 100 µM (inactive); in test [2], > 100 µM (inactive); in test [3] it was > 100 µM (inactive); in test [4], 96.6 µM (inactive); in test [5], > 100 µM (inactive). The GI50 in test [6], in [7], in test [8], in test [9], in [10] and in [11] was > 100 µM (inactive) throughout. Besides, the GI50 in test [12], in test [14], in test [15], in [16], in test [17] and in [18] was > 100 µM (inactive) throughout. In [19], the GI50 was > 100 µM (inactive).
In the case of `COc1ccc(C(=O)/C=C/c2ccc(OCCSCCCCCCCCCCSCCOc3ccc(/C=C/C(=O)c4ccc(OC)cc4)cc3)cc2)cc1`, the GI50 in test [20], in [1], in test [3], in [4], in [5] and in test [6] was > 100 µM (inactive) in each case. Moreover, the GI50 in [7], in test [8], in test [9], in test [10], in test [11] and in test [12] was > 100 µM (inactive) throughout. The GI50 in test [13], in test [15], in test [16], in [17] and in [18] was > 100 µM (inactive) in each case.
As to `COC(=O)/C=C1/N=C(N(C)/N=C/c2ccccc2)NC1=O`, the GI50 in test [20], in test [1], in [2], in test [4], in test [5] and in test [6] was > 100 µM (inactive) in each case. For the same compound, the GI50 in test [7], in test [8], in [9], in [10], in test [11] and in [12] was > 100 µM (inactive) each time. In addition, the GI50 in [14], in [15], in test [16], in [17], in [18] and in test [19] was > 100 µM (inactive) throughout.
